In test [1] the test system is Human dermal papilla cells. Put plainly: Dermal papilla cell growth promoting activity (WST-1, spheroid culture), Test Example 5. Type of test: cell-based. The conditions noted are these: for activity at 1 µM / activity at 4 µM / activity at 16 µM: Homo sapiens, Human dermal papilla cell, 72 hours, average of 3 wells, read-out: ΔO.D. 450 nm/620 nm (% of control). How it is done:
(§1) Human dermal papilla cells, which were purchased from Toyobo, were cultured in MEM (Invitrogen) containing 12% FBS.
The dermal papilla cells in passage 5 were sowed in a 96-well plate for spheroid culture to give a density of 1.5×10^4 cells/well and cultured overnight. Then, the medium was replaced by a medium to which no compound was added or a medium containing the compound and the culture was continued for additional 72 hours. After the completion of the culture, cells were counted by using a Cell Counting Kit (Wako Pure Chemicals). Five hours before the completion of the culture, WST-1 reagent at 1/10 amount per medium was added to each medium and then the optical density (O.D. 450 nm/620 nm) of the medium was measured at the completion of the culture. A positive correlation was observed between the cell number and optical density within the range of 0.25 to 4×10^4 cells/well.
In this table, each numerical value means an average of 6 wells (control group) or 3 wells (test groups). To compare the control group to the test groups, Student's t-test was employed: • *:P<0.05, **:P<0.01, ***:P<0.001.
(Tetrazolium dyes change colour on reduction, which living cells bring about.)

Test [2] has as its system WNT-5A mRNA. Put plainly: Activity of decreasing WNT-5A mRNA amount (QuantiGene bDNA method), Test Example 4. Type of test: cell-based. To be noted: Homo sapiens, Human dermal papilla cell, 24 h, human dermal papilla cells, concentration at which the mRNA amount is halved, average of 2 wells. How it is done: as §1
(§2) The dermal papilla cells in passage 5 were sowed in a 96-well plate to give a density of 1×10^4 cells/well and cultured overnight. Then, the medium was replaced by a medium to which no compound was added or a medium containing the compounds and the culture was continued for additional 24 hours. After the completion of the culture, WNT-5A or GAPDH mRNA amount was measured by using QuantiGene High Volume Kit (Bayer Medical) by the branched DNA (bDNA) signal amplification method (Drug Metabolism and Disposition, 28(5), 608-616 (2000)). In accordance with the protocol attached to QuantiGene High Volume Kit, cells were lysed by using Lysis Mixture and the lysis solution was added to capture plate. Next, a set of probes specific to WNT-5A or GPDH was added and allowed to react at 53° C. for 20 hours. After washing the plate by using 0.1×SSC containing 0.03% lauryl sulfate, an amplification probe comprising bDNA was added and allowed to react at 46° C. for 1 hour. After washing the plate, a labeling probe labeled with alkaline phosphatase was added and allowed to react at 46° C. for 1 hour. After washing the plate, a substrate Lumi-Phos Plus was added and allowed to react at 46° C. for 30 minutes. Then, the luminescence was measured by using WALLAC 1420ARVOsx.
The WNT-5A-specific probe set was designed based on the sequence of the coding region of human WNT-5A mRNA. As capture extenders (CEs), 10 probes (SEQ ID NOs:12 to 21) were used; as label extenders (LEs), 31 probes (SEQ ID NOs:22 to 52) were employed; and as blockers, […] (SEQ ID NOs:53 to 60) were employed.
(§3) The amounts of WNT-5A and GAPDH mRNAs are expressed in relative values (%) to the control case of adding of no compound and the concentration of a compound at which the mRNA amount is halved (IC50) is calculated as an index of WNT-5A mRNA decreasing activity of the corresponding compound.

In test [3] the test system is WNT-5A mRNA. Put plainly: Decrease in WNT-5A mRNA in monkey skin organ culture (RT-PCR), Test Example 6. Type of test: cell-based, Cynomolgus monkey (Macaca fascicularis). To be noted: 40-cycle PCR, hair follicles, 11th day of culturing, FIG. 4. How it is done: The dorsal skin of a Cynomolgus monkey (Macaca fascicularis) (male, 6 years old) was collected and divided into pieces (5 mm×8 mm) under a stereoscopic microscope. Then each skin tissue piece was cultured in William's Medium E (Invitrogen) to which no compound was added or Compound 7 or Compound 3 was added and which contained 10 μg/ml insulin (Sigma) and 10 ng/ml hydrocortisone (Kurabo).
On the 11th day of the culturing, hair follicles were separated from each skin tissue piece and total RNAs were extracted by using TRIzol reagent (Invitrogen). Using 200 ng portions of the total RNAs, 0.4 μM portions of primers specific to WNT-5A or glyceraldehyde3-phosphate dehydrogenase (GAPDH) [WNT-5A sense: AATGTCTTCCAAGTTCTTCCTAGTGGC (SEQ ID NO-8), WNT-5A antisense: GATGTCGGAATTGATACTGGCA (SEQ ID NO:9), GAPDH sense: ACCACAGTCC ATGCCATCAC (SEQ ID NO:10) and GAPDH antisense: TCCACCACCC TGTTGCTGTA (SEQ ID NO:11)] and SUPERSCRIPT One-Step RT-PCT with PLATINUM Taq (Invitrogen), RT-PCR was cared out in accordance with the protocol attached to SUPERSCRIPT One-Step RT-PCT with PLATINUM Taq. In brief, first strand synthesis was carried out at 50° C. for 30 minutes in a reaction system of 25 μl in total volume in accordance with the protocol attached to SUPERSCRIPT One-Step RT-PCT with PLATINUM Taq. […]

The test system of test [4] is hair follicles in monkey skin organ culture. Kind of test: Enlargement in hair bulb diameter in monkey skin organ culture, Test Example 8. Type of test: cell-based, Cynomolgus monkey (Macaca fascicularis). To be noted: culturing for 30 days, FIGS. 6 and 7. As for the experimental part:
The dorsal skin of a Cynomolgus monkey (Macaca fascicularis) (male, 6 years old) was collected and divided into pieces (5 mm×8 mm) under a stereoscopic microscope. Then each skin tissue piece was cultured in William's Medium E (Invitrogen) to which no compound was added or Compound 7 or Compound 3 was added and which contained 10 μg/ml of insulin (Sigma) and 10 ng/ml of hydrocortisone (Kurabo).
On the 30th day of the culturing, all follicles contained in each skin tissue piece were separated and the diameter of bulbs was measured under a stereoscopic microscope.
FIGS. 6 and 7 show the results. In these figures, each numerical value means mean±S.E. of bulb diameters of all follicles contained in each skin tissue piece. To compare the control group with the test groups, Student's t-test was employed: • *:P<0.05.

Test [5] has as its system GAPDH mRNA. Kind of test: GAPDH mRNA amount (QuantiGene bDNA method), Test Example 4. Type of test: cell-based. To be noted: Human dermal papilla cell; human dermal papilla cells, 24 hours, concentration at which the mRNA amount is halved, average of 2 wells. How it is done: as §1, §2
As GAPDH-specific probe set, use was made of bDNA probe set for human GAPDH (XenoTech LLC, B0960).
as §3

Test [6] has as its system stumptailed macaque suffering from alopecia. Kind of test: Hair growth test on stumptailed macaque, Test Example 9. Type of test: in vivo, stumptailed macaque (Macaca arctoides). The conditions noted are these: lotion containing 0.3% compound. As for the experimental part: To the forehead of a stumptailed macaque (Macaca arctoides) (male, 14 years old) suffering from alopecia, 1 mL of a lotion containing 0.3% Compound 7 was applied once a day 5 times per week for 6 months. Before the initiation of the application, the alopecia site in the forehead was marked by tattoo. The skin part including the tattoo was photographed before the initiation of the application and after applying for 6 months.

As a reminder, the IC50 is the concentration that gives 50% inhibition.

“Also recorded” adds a separate entry of the source.

For `C[C@@H]1C[C@@H]2O[C@H]2CC/C=C/C(=O)Cc2c(Cl)c(O)cc(O)c2C(=O)O1` [Compound 3], in test [1], the activity at 1 µM came to 92.9 ± 1.6%, the activity at 4 µM is 92.9 ± 9.9% and the activity at 16 µM turned out to be 244 ± 33.4%. In test [2], this compound displayed a half-inhibitory concentration (IC50) of 3.16 µM. The “amplified WNT-5A cDNA fragment” value in test [3] is “remarkably decreased”. Further, in test [4], the “average bulb diameter of the follicles vs control” value is recorded as “significantly higher; also recorded: enlarges the hair bulb diameter”. Also, half-maximal inhibition in test [5] (IC50) required 58 µM.

In the case of `C[C@@H]1C[C@@H]2O[C@H]2CC/C=C/[C@H](O)Cc2c(Cl)c(O)cc(O)c2C(=O)O1` [Compound 7], in test [6] (1 mL once a day 5 times per week for 6 months, FIG. 8), the “alopecia in the forehead” value is given as “clearly ameliorated”. Moreover, in test [6] (after applying for 6 months), the “thick terminal hairs” value was “increased” and the “vellus hairs” value is listed as “decreased”. Further, in test [1], the activity at 1 µM came to 82.6 ± 3.9%, the activity at 4 µM is 170 ± 10.4% and the activity at 16 µM was found to be 195 ± 12.7%. For the same compound, in test [1] (no concentration stated), the “growth of dermal papilla cells” value is on record as “excellent effect of promoting the growth”. Moreover, the IC50 in test [2] is 4.07 µM. In addition, the “amplified WNT-5A cDNA fragment” value in test [3] was “remarkably decreased”. Besides, the “average bulb diameter of the follicles vs control” value in test [4] is reported as “enlarges the hair bulb diameter; also recorded: significantly higher”. Moreover, the IC50 in test [5] was more than 120 µM.

The record behind these values is patent publication US20050182129A1, “Hair growth tonic” (priority 2002, published 2005).
